From article PMC8949893, “Chemical Synthesis, Pharmacokinetic Properties and Biological Effects of JM-00266, a Putative Non-Brain Penetrant Cannabinoid Receptor 1 Inverse Agonist” (International Journal of Molecular Sciences, 2022)

Key:
mice [1] = assay: Food intake in 24-h food-deprived mice; assay type: in vivo; conditions: ACEA 1 mg/kg i.p.; for Cumulative 3-h food intake, co-administration with ACEA: Rimonabant 10 mg·kg−1, JM-00266 20 mg·kg−1
Method: For food intake experiments, mice were food-deprived for 24 h before being submitted to an i.p. injection of ACEA (1 mg·kg^−1). […] Cumulative food intake was measured every hour over a period of 3 h from refeeding.

mice [2] = assay: Body (rectal) temperature measurement; assay type: in vivo; conditions: for Effect on hypothermic response to ACEA: pre-treatment 20 min before ACEA 1 mg·kg−1, Rimonabant 10 mg·kg−1, JM-00266 20 mg·kg−1, t = 30 min
Method: Mice rectal temperature was assessed using a VT4810 controller (Vertex Technology Corp., New Taipei City, Taiwan) adapted with a mouse rectal probe. In the first experiment, the impact of anandamide (10 mg·kg^−1) on body temperature was recorded during 30 min on animals injected either 20 min earlier with vehicle or JM-00266 (20 mg·kg^−1).

mice [3] = assay: Gastro-intestinal transit (charcoal marker); assay type: in vivo
Method: Short-term effects of JM-00266 on gastro-intestinal transit were tested as an indicator of peripheral CB1R activity. Transit was measured by administering a non-absorbed marker (10% charcoal suspension in 5% gum arabic) as previously described.

C57BL/6 wild type mice [4] = assay: Insulin tolerance test (ITT); assay type: in vivo; conditions: 10 mg·kg−1 i.p. 10 min before insulin 0.5 UI·kg−1
Method: (§1) To test acute effects of JM-00266 on glucose metabolism and their specificity to CB1R, C57BL/6 wild type mice and CB1R^−/− mice fasted for 6 h were subjected to an oral glucose tolerance test (OGTT, 2 g·kg^−1 glucose) and to an insulin tolerance test (ITT) using 0.5 UI·kg^−1 insulin (Actrapid, Novo Nordisk, La Défense, France) 10 min after i.p. injection of JM-00266 (10 mg·kg^−1) or vehicle. For both tests, glycemia was monitored during 120 min post-injection with a My Life Pura TM glucose meter (Ypsomed, Paris, France) directly on a blood drop from the tail. Corresponding AUC0–2 h were calculated.

C57BL/6 wild type mice [5] = assay: Oral glucose tolerance test (OGTT) in wild type mice; assay type: in vivo
Method: as §1

[6] = system: visceral adipose tissue explants; assay: In vitro lipolysis: glycerol release by adipose tissue explants from treated mice; conditions: explants from mice injected with JM-00266 10 mg·kg−1 4 h before sacrifice, 1 h culture
Method: In vitro experiments. Overnight-fasted mice were injected i.p. with JM-00266 (mg·kg^−1) or vehicle. Four hours later, mice were anesthetized with pentobarbital (50 mg·kg^−1) and epididymal adipose tissue was collected, rinsed in a warm medium (DMEM-HAM/F12) supplemented with 1% BSA, and dissected into ~10 mg pieces. Then, 5–6 explants were incubated in a 5% CO2 atmosphere at 37 °C under slight agitation in 1 mL of the same medium. Free glycerol in the culture medium was determined after 1 h of incubation using a colorimetric assay (glycerol FS, DiaSys).

Brain/plasma ratio (B/P) = assay type: in vivo; conditions: mice; for Effect of the administration route on distribution in brain and plasma: 10 mg·kg−1, i.p. vs oral; for Kp: mouse, brain, intraperitoneal
Method: (§2) Tissues were homogenized with a mini-bead beater (BioSpec Products, Bartlesville, OK) in 10 volumes of acetonitrile containing 15 ng of internal standard, JM-00252. Blood samples were centrifuged at 6500× g during 10 min 4 °C and 5 µL of plasma were diluted in 10 volumes of acetonitrile containing 15 ng of internal standard. Then, each homogenate of tissue or plasma was centrifuged for 10 min at 6500× g and the supernatant was recovered and carefully transferred to new glass tubes. Finally, the extract was injected into a 1200 LC system coupled to a 6460-QqQ MS/MS system equipped with a JetStream ESI source (Agilent technologies, Les Ulis, France). Separation was achieved on a Poroshell 120 EC-C8 2.1 mm × 100 mm, 2.7 µm column (Agilent technologies) at a flow rate of 0.4 mL.min^−1, 55 °C, with a linear gradient of (solvent A) water containing 1 mM ammonium formate and 0.2% formic acid and (solvent B) methanol containing 1 mM ammonium formate and 0.2% formic acid and as follows: 50% B for 1 min, up to 100% B in 4 min, and then maintained at 100% for 2 min. The acquisition was performed in positive Single Reaction Monitoring (SRM) mode (source temperature: 300 °C, nebulizer gas flow rate was 10 L·min^−1, 15 psi, sheath gas flow 7 L·min^−1, temperature 225 °C, capillary 4000 V, nozzle 1500 V). […] Results are expressed as ng·g^−1 for tissues and ng·mL^−1 for plasma.
Brain/plasma ratios (B/P) were determined as previously described. […] Blood and brain were collected and directly extracted for further analysis by LC-MS/MS.

mice [7] = assay: Open field test (anxiety-related behavior); assay type: in vivo; conditions: 10 mg·kg−1 i.p. 30 min before, 10 min exploration
Method: Anxiety-related behavior was assessed using the open field test (OF; Mouse Open Field Arena ENV-510; Med Associates Inc., Fairfax, VT, USA). […] The two regions were defined by grid lines that divided each box into the center and periphery, with each of the four lines being 11 cm from each wall.

murine CB1R = target: T1, murine CB1R (Mus musculus, UniProt P47746); assay: GloSensor cAMP functional assay in CB1R-transfected HEK293T/17 cells; assay type: cell-based
T1 construct: host or cells: HEK293T/17
Method: GloSensor™ cAMP assay designed by Promega (Charbonnières-les-Bains, France) was used to monitor activation of CB1R. HEK293T/17 cells obtained from the American Type Cell Culture Collection (LGC Promochem, Molsheim, France) were seeded at 30,000 cells per well on poly-D-lysine coated 96-well plates (BD Biosciences, Le Pont de Claix, France). They were grown in Dulbecco’s Modified Eagle Medium (DMEM, Waltham, MA, USA) containing 2 mM glutamax and 10% fetal bovine serum. Twenty-four hours later, cells were transiently co-transfected with 50 ng per well of pcDNA3-mouse CB1R (plasmid #13391 supplied by Addgene, Cambridge, MA, USA) which was a gift from Mary E. Abood (California Pacific Medical Center Research Institute, San Francisco, California) and pGlo™-22F cAMP plasmid-luciferase (100 ng per well) allowing these cells to produce light proportionally to intracellular CB1R-dependent cAMP level. Transfection was performed using the Fugene®HD transfection reagent (Promega) for 24 h according to the manufacturer’s instructions. Mock transfections were performed with the empty vector pcDNA3. Twenty-four hours after transfection, cells were equilibrated for 2 h with a CO2-independent medium (Gibco®, Life Technologies, Courtaboeuf, France) supplemented with the GloSensor™ cAMP reagent before adding tested compounds. When a steady-state basal signal was obtained, cells were incubated for 10 min with 1 µM forskolin (Sigma) at room temperature to enhance the intracellular basal cAMP level. Then increasing concentrations of JM-00266 (0.1 µM to 1 mM) were added in the reaction medium in the presence or absence of anandamide (0.1 µM to 1 µM) and luminescence was measured for 20 min with a Victor 3V plate reader (Perkin Elmer, Courtaboeuf, France). […] When GloSensor™ cAMP assays were carried out in the presence of 0.1 µg·mL^−1 pertussis toxin (Sigma), this compound was added in the incubation medium 24 h before incubation with forskolin. All assays were performed in duplicate and each experiment was repeated three times. Results were expressed as the percentage of forskolin-stimulated luciferase activity. The EC50 values were generated using the Sigma Plot software.

CB1R−/− mice = assay: Oral glucose tolerance test (OGTT) in CB1R−/− mice; assay type: in vivo; conditions: 10 mg·kg−1 i.p. 10 min before glucose gavage
Method: as §1

[8] = Tissue distribution 4 h after gavage; assay type: in vivo; conditions: mice, 4 h after gavage in oil, 10 mg·kg−1
Method: (§3) At 1, 2, 4 and 8 h post-administration, animals were killed by cervical dislocation and blood was collected from the vena cava into tubes containing heparin and centrifuged immediately at 6500× g for 10 min at 4 °C. For determination of tissue distribution, brain, liver and adipose tissue were collected 4 h post-gavage. Plasma and tissue samples were directly extracted for further analysis by Liquid chromatography coupled to tandem mass spectrometry (LC-MS/MS).
as §2

mice [9] = assay: In vivo lipolysis: plasma glycerol appearance after BRL37344; conditions: JM-00266 i.p. 4 h before BRL37344 5 mg·kg−1 i.p.
Method: In vivo experiments. Overnight-fasted mice were injected i.p. with JM-00266 (mg·kg^−1) or vehicle. Four hours later, mice were injected i.p. with the specific ß3-adrenergic receptor agonist, BRL37344 (5 mg·kg^−1). Blood samples (~25 µL) were collected from tails in tubes containing EDTA (Sarstedt, Nümbrecht, Germany) at times 0, 15, 30, 45 and 60 min after BRL37344 injection to measure plasma glycerol appearance using a colorimetric assay (glycerol FS, DiaSys, Condom, France).

[10] = Plasma kinetic profile after i.p., oral or intravenous administration; assay type: in vivo, mice; conditions: for Maximal drug plasma concentration: n = 4
Method: as §3, §2

[11] = 10 mg·kg−1, i.p. or oral, DMSO/Tween 80 aqueous solution, at maximal absorption time point

T1 sequence (P47746 whole entry): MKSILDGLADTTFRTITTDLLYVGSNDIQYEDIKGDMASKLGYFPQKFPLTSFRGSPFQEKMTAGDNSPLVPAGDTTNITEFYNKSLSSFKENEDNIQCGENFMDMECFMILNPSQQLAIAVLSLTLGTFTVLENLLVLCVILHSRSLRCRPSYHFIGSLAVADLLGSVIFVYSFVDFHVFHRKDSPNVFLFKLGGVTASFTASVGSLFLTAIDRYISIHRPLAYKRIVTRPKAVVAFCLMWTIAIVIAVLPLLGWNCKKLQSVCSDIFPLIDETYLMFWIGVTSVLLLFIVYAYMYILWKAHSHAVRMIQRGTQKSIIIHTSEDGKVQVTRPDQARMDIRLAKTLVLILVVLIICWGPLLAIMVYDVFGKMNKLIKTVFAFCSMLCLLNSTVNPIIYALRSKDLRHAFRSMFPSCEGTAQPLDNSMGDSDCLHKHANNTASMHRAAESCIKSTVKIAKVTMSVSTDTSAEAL

CCCCC/C=C\C/C=C\C/C=C\C/C=C\CCCC(=O)NCCCl.O [ACEA, Arachidonyl-2′-chloroethylamide hydrate]
Cumulative 3-h food intake, agonist alone (mice [1]): no effect on food intake
Effect on rectal temperature, agonist alone (mice [2]; ACEA 1 mg·kg−1, t = 30 min): hypothermic response

CSc1ccc(C2C(N3C(=O)c4ccccc4C3=O)C(=O)N2c2ccc(SC)cc2)cc1 (stereo not shown) [JM-00266, 1,4-di-(4-méthylthiophenyl)-3-phthaloylazetidin-2-one]
Effect on anandamide-induced slowing down of gastro-intestinal transit (mice [3]; JM-00266 10 mg·kg−1 10 min before anandamide 10 mg·kg−1): abrogated
Glycemia during ITT (insulin sensitivity) (C57BL/6 wild type mice [4]): lower glycemia over time compared to vehicle treated mice
Plasma insulin levels during OGTT (C57BL/6 wild type mice [5]; 10 mg·kg−1 i.p.): lower than vehicle
Glucose tolerance (OGTT) vs vehicle (C57BL/6 wild type mice [5]; 10 mg·kg−1 i.p. 10 min before glucose gavage 2 g·kg−1): improved glucose tolerance
Glycerol release by visceral adipose tissue explants vs control [6]: higher than in the control
Brain/plasma ratio (B/P) (Brain/plasma ratio (B/P); [11]): significantly lower
Effect of the administration route on distribution in brain and plasma (Brain/plasma ratio (B/P)): not modified
Kp (Brain/plasma ratio (B/P); [11]): 0.3 to 0.5
Cumulative 3-h food intake, co-administration with ACEA (mice [1]): not observed
Effect on anandamide-induced decrease in rectal temperature (mice [2]; JM-00266 20 mg·kg−1 20 min before anandamide 10 mg·kg−1, 30 min recording): not able to counteract the decrease in rectal temperature
Effect on hypothermic response to ACEA (mice [2]): had no effect
Open field: locomotor activity (total ambulatory distance) (mice [7]): did not alter
Open field: number of center entries (mice [7]): did not alter
Open field: time spent in the center (mice [7]): did not alter
Effect on cAMP formation, compound alone (murine CB1R; HEK293T/17 cells transfected with murine CB1R, 0.1 µM to 1 mM): dose-dependent increase in cAMP formation
EC50 (murine CB1R; HEK293T/17 cells transfected with murine CB1R, forskolin 1 µM, GloSensor luminescence, read-out: EC50, increase in cAMP formation (inverse agonism)): 249 µM
cAMP response with increasing concentrations of anandamide (murine CB1R; anandamide 0.1 µM to 1 µM): lost
cAMP response in the presence of pertussis toxin (murine CB1R; pertussis toxin 0.1 µg·mL−1 added 24 h before): lost
Glucose tolerance (OGTT) vs vehicle (CB1R−/− mice): failed to improve glucose tolerance
Concentrations in plasma and tissues compared with Rimonabant [8]: lower concentrations in plasma and tissues than Rimonabant
Tissue distribution (plasma, brain, liver, visceral adipose tissue) [8]: preferentially accumulated in the liver and the adipose tissue whereas brain concentration remained very low
ß-adrenergic-induced glycerol production (plasma glycerol) vs vehicle (mice [9]): increased
Plasma clearance compared with Rimonabant ([10]; intravenous administration): slightly higher clearance
Time of peak drug plasma concentration ([10]; mice, i.p. 10 mg·kg−1, DMSO/Tween solution): 30 min
Maximal drug plasma concentration ([10]; mice, i.p. 10 mg·kg−1, mean ± SEM): 378 ± 27 ng/mL
Time of peak drug plasma concentration ([10]; mice, oral 10 mg·kg−1, dissolved in oil): 60 min
Maximal drug plasma concentration ([10]; mice, oral 10 mg·kg−1, mean ± SEM): 203 ± 18 ng/mL

Cc1c(C(=O)NN2CCCCC2)nn(-c2ccc(Cl)cc2Cl)c1-c1ccc(Cl)cc1 [Rimonabant, reference compound]
Effect of the administration route on distribution in brain and plasma (Brain/plasma ratio (B/P)): strongly affected
Kp (Brain/plasma ratio (B/P); [11]): > 1
Cumulative 3-h food intake, co-administration with ACEA (mice [1]): strong hypophagia
Effect on hypothermic response to ACEA (mice [2]): fully inhibited the hypothermic response
Open field: locomotor activity (total ambulatory distance) (mice [7]): did not significantly alter
Open field: number of center entries (mice [7]): did not significantly alter
Open field: time spent in the center (mice [7]): significantly decreased
Tissue distribution (plasma, brain, liver, visceral adipose tissue) [8]: preferentially accumulated in the liver and the adipose tissue whereas brain concentration remained very low
Bioavailability compared with JM-00266, whatever the administration route ([10]; mice, 10 mg·kg−1, i.p. or oral): far higher

CCCCC/C=C\C/C=C\C/C=C\C/C=C\CCCC(=O)NCCO [anandamide, Arachidonylethanolamide, reference compound]
Effect on gastro-intestinal transit, agonist alone (mice [3]; anandamide 10 mg·kg−1): slowing down of gastro-intestinal transit
Effect on rectal temperature, agonist alone (mice [2]; anandamide 10 mg·kg−1): decrease in rectal temperature
